Assay results: publication PMC7037732, “Synthesis of Combretastatin A-4 and 3′-Aminocombretastatin A-4 derivatives with Aminoacid Containing Pendants and Study of their Interaction with Tubulin and as Downregulators of the VEGF, hTERT and c-Myc Gene Expression” (Molecules, 2020)

Tests used:
[1] = test system: purified tubulin; assay: Critical concentration (CrC) for the assembly of purified tubulin in GAB; assay type: biochemical; conditions: compound 27.5 μM, tubulin 25 μM, glycerol (GAB) and GTP assembly buffer; control 7.9 ± 1.2
Experimental: The effect on the self-assembly of tubulin was determined by measuring the critical concentration (CrC).

[2] = test system: MCF-7 (breast adenocarcinoma); assay: Inhibition of cell proliferation (MTT), MCF-7; assay type: cell-based, human; conditions: Homo sapiens, 48 h of treatment (footnote), average ±SD of three experiments
Description: (§1) The ability of the synthetic compounds to inhibit cell proliferation was established by means of their IC50 values towards the tumor cell lines HT-29 (human colon adenocarcinoma), MCF-7 (breast adenocarcinoma) and A-549 (human pulmonary adenocarcinoma), as well as towards the nontumor cell line HEK-293 (human embryonic kidney cells). Results for compounds derived from CA-4 are presented in Table 1, along with the calculated selectivity indexes SIA (for HT-29 cell line), SIB (for MCF-7 cell line) and SIc (for A-549 cell line), obtained by dividing the IC50 values of the nontumor cell line (HEK-293) by those of the corresponding tumor cell line. The higher the SI index, the higher the therapeutic safety margin.
(§2) Cell culture media were purchased from Gibco (Grand Island, NY, USA). Fetal bovine serum (FBS) was a product of Harlan-Seralab (Belton, U.K.). Supplements and other chemicals not listed in this section were obtained from Sigma Chemical Co. (St. Louis, MO, USA). Plastics for cell culture were supplied by Thermo Fischer Scientific Inc., Madrid, Spain. All tested compounds were dissolved in DMSO at a concentration of 10 μg/mL and stored at −20 °C until use. HT-29, MCF-7, A-549 and HEK-293 cell lines were maintained in a Dulbecco’s modified Eagle’s medium (DMEM) containing glucose (1 g/L), glutamine (2 mM), penicillin (50 IU/mL), streptomycin (50 μg/mL) and amphotericin B (1.25 μg/mL), supplemented with 10% FBS. Cells from human non-small lung carcinoma (clone A549; ATCC n°: CCL2, MD, USA) were routinely grown at 37 °C in a humidified atmosphere of 5% CO2. Cells were maintained in a standard medium composed of RPMI 1640 (Lonza, Group Ltd., Basel, Switzerland), supplemented with 10% fetal bovine serum (FBS), 2 mM L-glutamine and 1% penicillin and streptomycin (Invitrogen). Cells were free from mycoplasma as determined by MycoAlert tests (Lonza, Group Ltd., Basel, Switzerland).
(§3) A total of 5 × 10^3 HT-29, MCF-7 or HEK-293 cells in a total volume of 100 μL of their respective growth media were incubated with serial dilutions of the tested compounds. The 3-(4,5-dimethylthiazol-2-yl)-2,5-diphenyltetrazolium bromide (MTT; Sigma Chemical Co.) dye reduction assay in a 96-well microplate was used, as previously described. […] The resulting formazan was dissolved in 150 μL of 0.04 N HCl/2-propanol and read at 550 nm. All determinations were carried out in triplicate.

[3] = test system: HEK-293 (human embryonic kidney cells); assay: Inhibition of cell proliferation (MTT), nontumor HEK-293; assay type: cell-based; conditions: Homo sapiens, 48 h of treatment (footnote), average ±SD of three experiments
Description: as §1, §2, §3

[4] = test system: A-549 (human pulmonary adenocarcinoma); assay: Inhibition of cell proliferation (MTT), A-549; assay type: cell-based; conditions: 48 h of treatment (footnote), average ±SD of three experiments
Description: as §1
as §2, with “Switzerland). […]” for “Switzerland).”

[5] = test system: HT-29 (human colon adenocarcinoma); assay: Inhibition of cell proliferation (MTT), HT-29; assay type: cell-based; conditions: Homo sapiens, 48 h of treatment (footnote), average ±SD of three experiments
Description: as §1, §2, §3

[6] = test system: A-549 cells; assay: Cell cycle distribution by flow cytometry; assay type: cell-based, human; conditions: A-549, 24 h; for cells accumulated in the G2/M phase: concentration per compound as in Tables 6 and 7, control 14%
Experimental: The effects of some CA-4 derivatives on the cell cycle were evaluated in A-549 cells.
The effects of some AmCA-4 derivatives on the cell cycle were also evaluated in A-549 cells.
The supernatant and trypsinated cells were harvested and then centrifuged (1200 rpm, 5 min, 4 °C). The cell pellet was resuspended in 1 mL of cold 70% ethanol for 30 min at −20 °C. Cells were centrifuged (2000 rpm, 5 min, 4 °C) to remove ethanol, and then the cell pellet was resuspended in the staining mix containing 50 µg/mL propidium iodide (Molecular Probes, France) and 100 µg/mL RNAse A (Sigma, France) in PBS for 20 min at room temperature in darkness. Samples were analyzed on a Becton Dickinson FACScan flow cytometer using the CellQuest software, which was also used to determine the percentage of cells in the G2/M phases of the cell cycle. PI was excited at 488 nm, and fluorescence analyzed at 620 nm on channel Fl-2.

[7] = Homo sapiens, A549, 48 h, Table 1
[8] = Homo sapiens, A549, 48 h, Table 2

| Structure (SMILES) | CrC (critical concentration) [1] [µM] | IC50 ([2]; MCF7, 48 h, Table 1) [µM] | IC50 ([3]; HEK293, 48 h, Table 1) [µM] | IC50 [4, 7] [µM] | IC50 ([5]; HT-29, 48 h, Table 1) [µM] | IC50 ([2]; MCF7, 48 h, Table 2) [µM] | IC50 ([3]; HEK293, 48 h, Table 2) [µM] | IC50 [4, 8] [µM] | IC50 ([5]; HT-29, 48 h, Table 2) [µM] | also measured |
| --- | --- | --- | --- | --- | --- | --- | --- | --- | --- | --- |
| COC(=O)CNC(=O)COc1cc(/C=C\c2cc(OC)c(OC)c(OC)c2)ccc1OC [Compound 3.1] | 9.52 ± 0.05 | 8 ± 2 | 9 ± 1 | 26 ± 2 | 12 ± 2 | – | – | – | – | – |
| COC(=O)[C@@H](NC(=O)COc1cc(/C=C\c2cc(OC)c(OC)c(OC)c2)ccc1OC)C(C)C [Compound 3.2] | 11.7 ± 2.3 | 12 ± 6 | 5 ± 2 | 24 ± 1 | 24 ± 4 | – | – | – | – | G0/G1 ([6]; 75 μM): 42 ± 3%; G2/M ([6]; 75 μM): 44 ± 1%; S ([6]; 75 μM): 14 ± 4% |
| COC(=O)[C@H](CC(C)C)NC(=O)COc1cc(/C=C\c2cc(OC)c(OC)c(OC)c2)ccc1OC [Compound 3.3] | 9.4 ± 1.4 | 19 ± 6 | 9 ± 2 | < 10 | 29 ± 6 | – | – | – | – | IC50 ([4]; Table 1): 8 ± 1 µM; G0/G1 ([6]; 75 μM): 45 ± 6%; G2/M ([6]; 75 μM): 36 ± 4%; S ([6]; 75 μM): 19 ± 2% |
| COC(=O)[C@H](Cc1ccccc1)NC(=O)COc1cc(/C=C\c2cc(OC)c(OC)c(OC)c2)ccc1OC [Compound 3.4] | – | 8 ± 2 | 4 ± 1 | < 10 | 28 ± 7 | – | – | – | – | IC50 ([4]; Table 1): 9 ± 2 µM; G0/G1 ([6]; 50 μM): 33 ± 4%; G2/M ([6]; 50 μM): 51 ± 2%; S ([6]; 50 μM): 16 ± 5%; cells accumulated in the G2/M phase [6]: 50–70% |
| COC(=O)[C@H](CO)NC(=O)COc1cc(/C=C\c2cc(OC)c(OC)c(OC)c2)ccc1OC [Compound 3.6] | – | 7 ± 3 | 7 ± 2 | 18 ± 4 | 9 ± 3 | – | – | – | – | G0/G1 ([6]; 75 μM): 30 ± 9%; G2/M ([6]; 75 μM): 53 ± 3%; S ([6]; 75 μM): 17 ± 6%; cells accumulated in the G2/M phase [6]: 50–70% |
| COc1ccc(/C=C\c2cc(OC)c(OC)c(OC)c2)cc1OCC(=O)N[C@@H](CO)C(=O)O [Compound 4.6] | 7.9 ± 1.6 | 27 ± 9 | 17 ± 1 | 36 ± 4 | 39 ± 16 | – | – | – | – | – |
| COc1ccc(/C=C\c2cc(OC)c(OC)c(OC)c2)cc1OCC(=O)N[C@H](C(=O)O)C(C)O (stereo partly drawn) [Compound 4.7] | 10.1 ± 1.8 | 40 ± 9 | 23 ± 9 | 41 ± 3 | 34 ± 11 | – | – | – | – | – |
| COc1ccc(/C=C\c2cc(OC)c(OC)c(OC)c2)cc1OCC(=O)N[C@@H](Cc1ccc(O)cc1)C(=O)O [Compound 4.8] | 8.5 ± 2.0 | – | – | 30 ± 7 | – | – | – | – | – | IC50 ([2]; MCF7, Table 1): 43 ± 7 µM; IC50 ([3]; HEK293, Table 1): 33 ± 1 µM; IC50 ([5]; HT-29, Table 1): 55 ± 5 µM |
| COC(=O)[C@H](NC(=O)COc1cc(/C=C\c2cc(OC)c(OC)c(OC)c2)ccc1OC)C(C)C [Compound 5.1] | – | 9 ± 3 | 3.9 ± 0.6 | < 10 | 27 ± 7 | – | – | – | – | IC50 ([4]; Table 1): 5 ± 1 µM; G0/G1 ([6]; 25 μM): 53 ± 8%; G2/M ([6]; 25 μM): 31 ± 7%; S ([6]; 25 μM): 16 ± 2% |
| COC(=O)[C@@H](CC(C)C)NC(=O)COc1cc(/C=C\c2cc(OC)c(OC)c(OC)c2)ccc1OC [Compound 5.2] | – | 16 ± 3 | 13 ± 3 | 22 ± 3 | 26 ± 1 | – | – | – | – | G0/G1 ([6]; 100 μM): 43 ± 4%; G2/M ([6]; 100 μM): 34 ± 1%; S ([6]; 100 μM): 23 ± 4% |
| COC(=O)[C@@H](Cc1ccccc1)NC(=O)COc1cc(/C=C\c2cc(OC)c(OC)c(OC)c2)ccc1OC [Compound 5.3] | – | 6 ± 1 | 3.7 ± 1.6 | 10 ± 3 | 12 ± 4 | – | – | – | – | G0/G1 ([6]; 50 μM): 38 ± 2%; G2/M ([6]; 50 μM): 43 ± 1%; S ([6]; 50 μM): 19 ± 2% |
| COc1ccc(/C=C\c2cc(OC)c(OC)c(OC)c2)cc1NC(=O)[C@@H]1CCCN1C(=O)OCC1c2ccccc2-c2ccccc21 [Compound 7.6] | 6.0 ± 0.5 | – | – | – | – | 0.058 ± 0.012 | 0.13 ± 0.03 | 1.33 ± 0.09 | 0.32 ± 0.14 | – |
| COc1ccc(/C=C\c2cc(OC)c(OC)c(OC)c2)cc1NC(=O)[C@@H]1CCCN1 [Compound 8.6] | 8.4 ± 0.1 | – | – | – | – | 3.1 ± 0.6 | 2.4 ± 1.4 | 1.2 ± 0.3 | 0.7 ± 0.2 | – |
| COc1ccc(/C=C\c2cc(OC)c(OC)c(OC)c2)cc1NC(=O)[C@H](NC(=O)OCC1c2ccccc2-c2ccccc21)C(C)C [Compound 9.1] | 8.9 ± 1.5 | – | – | – | – | 4.8 ± 0.5 | 5.1 ± 0.7 | 7.34 ± 0.23 | 5.5 ± 0.7 | – |
| COc1ccc(/C=C\c2cc(OC)c(OC)c(OC)c2)cc1NC(=O)[C@@H](CC(C)C)NC(=O)OCC1c2ccccc2-c2ccccc21 [Compound 9.2] | 6.5 ± 0.7 | – | – | – | – | 3.1 ± 0.5 | 2.4 ± 0.4 | 48 ± 3 | 44 ± 6 | – |
| COc1ccc(/C=C\c2cc(OC)c(OC)c(OC)c2)cc1NC(=O)[C@@H](Cc1ccccc1)NC(=O)OCC1c2ccccc2-c2ccccc21 [Compound 9.3] | 6.6 ± 0.2 | – | – | – | – | 4.5 ± 1.7 | 11.2 ± 1.5 | 18.5 ± 1.7 | 13 ± 5 | – |
| COc1ccc(/C=C\c2cc(OC)c(OC)c(OC)c2)cc1NC(=O)[C@H](N)Cc1ccccc1 [Compound 10.3] | 7.7 ± 2.1 | – | – | – | – | 2 ± 0.8 | 3.5 ± 0.9 | 2.9 ± 0.5 | 3.9 ± 0.8 | – |
| COc1ccc(/C=C\c2cc(OC)c(OC)c(OC)c2)cc1NC(=O)[C@H]1CCCN1 [Compound 10.4] | 8.7 ± 1.2 | – | – | – | – | 0.6 ± 0.14 | 3 ± 0.6 | 7.03 ± 0.22 | 4.4 ± 1.9 | – |
